Assay results published in patent publication US20230120564A1, “PYRIDO[3,4-D]PYRIMIDINE DERIVATIVE AND THERAPEUTIC PHARMACEUTIC COMPOSITION COMPRISING SAME” (KOREA INSTITUTE OF SCIENCE AND TECHNOLOGY, priority 2020, published 2023).

Columns and labels:
Assay in all cases: full kinase panel biochemical assay
EPHA6 = EPHA6 (Homo sapiens, UniProt Q9UF33); conditions: single concentration of 1 μM; read-out: percent inhibition of EPHA6
Procedure: (§1) In order to measure the protein kinase inhibitory activity (% inhibition) of the compound of the present invention, biochemical assay was performed in the full kinase panel. As a test compound, Compound No. 4 was used. The percent inhibition of each kinase when treated with the test compound at a single concentration of 1 μM was measured, and the residual enzyme activity values (%) of the kinases were calculated. Kinases whose calculated residual enzyme activity values (%) was 30% or less (i.e., kinases inhibited by 70% or more) are as follows: ABL1, ABL2/ARG, ACK1, ARAF, BLK, BMX/ETK, BRAF, BRK, BTK, c-Kit, c-Src, CSK, DDR1, DDR2, EPHA1, EPHA2, EPHA3, EPHA4, EPHA5, EPHA6, EPHA7, EPHA8, EPHB1, EPHB2, EPHB3, EPHB4, ERBB2/HER2, ERBB4/HER4, FGFR1, FGFR2, FGFR3, FGR, FLT1/VEGFR1, FLT4/VEGFR3, FMS, FRK/PTK5, FYN, GCK/MAP4K2, HCK, HGK/MAP4K4, JAK1, JAK2, KDR/VEGFR2, KHS/MAP4K5, LCK, LYN, LYN B, MEKK1, MLK4, MYLK3, NEK5, P38a/MAPK14, P38b/MAPK11, PDGFRa, PDGFRb, PEAK1, RET, RIPK2, RIPK4, SIK2, SRPK1, TAOK3/JIK, TLK1, TNK1, TXK, TYK2, YES/YES1, YSK4/MAP3K19, and ZAK/MLTK.

EPHA5 = EPHA5 (Homo sapiens, UniProt P54756); conditions: single concentration of 1 μM; read-out: percent inhibition of EPHA5
Procedure: as §1

RIPK2 = RIPK2 (Homo sapiens, UniProt O43353); conditions: single concentration of 1 μM; read-out: percent inhibition of RIPK2
Procedure: as §1

EPHA3 = EPHA3 (Homo sapiens, UniProt P29320); conditions: single concentration of 1 μM; read-out: percent inhibition of EPHA3
Procedure: as §1

YES/YES1 = YES/YES1 (Homo sapiens, UniProt P07947); conditions: single concentration of 1 μM; read-out: percent inhibition of YES/YES1
Procedure: as §1

TXK = TXK (Homo sapiens, UniProt P42681); conditions: single concentration of 1 μM; read-out: percent inhibition of TXK
Procedure: as §1

EPHA2 = EPHA2 (Homo sapiens, UniProt P29317); conditions: single concentration of 1 μM; read-out: percent inhibition of EPHA2
Procedure: as §1

ABL1 = ABL1 (Homo sapiens, UniProt P00519); conditions: single concentration of 1 μM; read-out: percent inhibition of ABL1
Procedure: as §1

EPHB4 = EPHB4 (Homo sapiens, UniProt P54760); conditions: single concentration of 1 μM; read-out: percent inhibition of EPHB4
Procedure: as §1

FGFR2 = FGFR2 (Homo sapiens, UniProt P21802); conditions: single concentration of 1 μM; read-out: percent inhibition of FGFR2
Procedure: as §1

FGR = FGR (Homo sapiens, UniProt P09769); conditions: single concentration of 1 μM; read-out: percent inhibition of FGR
Procedure: as §1

TAOK3/JIK = TAOK3/JIK (Homo sapiens, UniProt Q9H2K8); conditions: single concentration of 1 μM; read-out: percent inhibition of TAOK3/JIK
Procedure: as §1

PDGFRb = PDGFRb (Homo sapiens, UniProt P09619); conditions: single concentration of 1 μM; read-out: percent inhibition of PDGFRb
Procedure: as §1

MYLK3 = MYLK3 (Homo sapiens, UniProt Q32MK0); conditions: single concentration of 1 μM; read-out: percent inhibition of MYLK3
Procedure: as §1

LYN B = LYN B (Homo sapiens, UniProt P07948); conditions: single concentration of 1 μM; read-out: percent inhibition of LYN B
Procedure: as §1

BRK = BRK (Homo sapiens, UniProt Q13882); conditions: single concentration of 1 μM; read-out: percent inhibition of BRK
Procedure: as §1

RIPK4 = RIPK4 (Homo sapiens, UniProt P57078); conditions: single concentration of 1 μM; read-out: percent inhibition of RIPK4
Procedure: as §1

TYK2 = TYK2 (Homo sapiens, UniProt P29597); conditions: single concentration of 1 μM; read-out: percent inhibition of TYK2
Procedure: as §1

NEK5 = NEK5 (Homo sapiens, UniProt Q6P3R8); conditions: single concentration of 1 μM; read-out: percent inhibition of NEK5
Procedure: as §1

FLT4/VEGFR3 = FLT4/VEGFR3 (Homo sapiens, UniProt P35916); conditions: single concentration of 1 μM; read-out: percent inhibition of FLT4/VEGFR3
Procedure: as §1

RET = RET (Homo sapiens, UniProt P07949); conditions: single concentration of 1 μM; read-out: percent inhibition of RET
Procedure: as §1

PEAK1 = PEAK1 (Homo sapiens, UniProt Q9H792); conditions: single concentration of 1 μM; read-out: percent inhibition of PEAK1
Procedure: as §1

FMS = FMS (Homo sapiens, UniProt P07333); conditions: single concentration of 1 μM; read-out: percent inhibition of FMS
Procedure: as §1

KDR/VEGFR2 = KDR/VEGFR2 (Homo sapiens, UniProt P35968); conditions: single concentration of 1 μM; read-out: percent inhibition of KDR/VEGFR2
Procedure: as §1

PEAK1, sequence (Q9H792 whole entry): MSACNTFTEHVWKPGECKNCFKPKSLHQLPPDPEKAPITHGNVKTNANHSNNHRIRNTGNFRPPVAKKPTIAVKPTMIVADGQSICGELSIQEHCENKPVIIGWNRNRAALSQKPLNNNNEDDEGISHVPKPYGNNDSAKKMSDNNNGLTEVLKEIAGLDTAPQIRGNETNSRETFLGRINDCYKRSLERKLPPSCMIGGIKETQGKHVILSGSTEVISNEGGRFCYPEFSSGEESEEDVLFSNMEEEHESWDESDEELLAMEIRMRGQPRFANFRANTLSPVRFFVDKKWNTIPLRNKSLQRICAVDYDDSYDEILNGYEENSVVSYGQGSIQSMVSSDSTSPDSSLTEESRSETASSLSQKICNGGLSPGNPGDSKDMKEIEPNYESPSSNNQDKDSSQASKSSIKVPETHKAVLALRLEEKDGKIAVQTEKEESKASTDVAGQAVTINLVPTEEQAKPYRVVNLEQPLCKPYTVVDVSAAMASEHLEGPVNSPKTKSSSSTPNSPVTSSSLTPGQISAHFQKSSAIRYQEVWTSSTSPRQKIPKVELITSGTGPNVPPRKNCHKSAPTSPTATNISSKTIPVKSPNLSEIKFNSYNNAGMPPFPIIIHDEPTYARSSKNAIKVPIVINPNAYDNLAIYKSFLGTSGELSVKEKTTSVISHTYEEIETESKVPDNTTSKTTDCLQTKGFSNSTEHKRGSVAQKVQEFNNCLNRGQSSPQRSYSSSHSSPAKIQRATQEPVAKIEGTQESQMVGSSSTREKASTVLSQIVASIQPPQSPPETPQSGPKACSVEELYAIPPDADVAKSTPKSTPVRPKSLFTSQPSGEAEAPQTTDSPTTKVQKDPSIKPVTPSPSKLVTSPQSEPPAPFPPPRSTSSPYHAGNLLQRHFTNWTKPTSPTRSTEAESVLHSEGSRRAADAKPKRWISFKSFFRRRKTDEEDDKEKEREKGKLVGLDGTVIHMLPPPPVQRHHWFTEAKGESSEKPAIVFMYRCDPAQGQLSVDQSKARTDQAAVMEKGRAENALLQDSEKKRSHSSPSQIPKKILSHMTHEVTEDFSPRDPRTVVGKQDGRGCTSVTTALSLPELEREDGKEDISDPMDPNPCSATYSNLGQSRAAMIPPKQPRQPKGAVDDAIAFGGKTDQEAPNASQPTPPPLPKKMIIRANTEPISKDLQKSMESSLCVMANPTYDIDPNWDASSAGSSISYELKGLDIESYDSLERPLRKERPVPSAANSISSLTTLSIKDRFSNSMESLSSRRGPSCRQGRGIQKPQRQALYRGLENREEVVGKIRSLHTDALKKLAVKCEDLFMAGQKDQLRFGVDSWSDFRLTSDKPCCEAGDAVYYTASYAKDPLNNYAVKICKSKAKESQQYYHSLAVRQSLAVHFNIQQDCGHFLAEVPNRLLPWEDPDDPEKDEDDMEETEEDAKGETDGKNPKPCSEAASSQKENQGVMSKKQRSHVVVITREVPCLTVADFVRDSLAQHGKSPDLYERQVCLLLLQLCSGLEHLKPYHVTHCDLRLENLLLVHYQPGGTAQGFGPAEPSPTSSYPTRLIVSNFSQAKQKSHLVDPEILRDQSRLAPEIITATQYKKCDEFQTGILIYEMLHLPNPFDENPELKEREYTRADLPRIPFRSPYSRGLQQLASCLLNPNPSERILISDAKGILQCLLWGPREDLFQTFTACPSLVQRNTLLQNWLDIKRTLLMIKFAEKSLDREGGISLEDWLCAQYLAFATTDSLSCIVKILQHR
EPHA5, sequence (P54756 25-1037): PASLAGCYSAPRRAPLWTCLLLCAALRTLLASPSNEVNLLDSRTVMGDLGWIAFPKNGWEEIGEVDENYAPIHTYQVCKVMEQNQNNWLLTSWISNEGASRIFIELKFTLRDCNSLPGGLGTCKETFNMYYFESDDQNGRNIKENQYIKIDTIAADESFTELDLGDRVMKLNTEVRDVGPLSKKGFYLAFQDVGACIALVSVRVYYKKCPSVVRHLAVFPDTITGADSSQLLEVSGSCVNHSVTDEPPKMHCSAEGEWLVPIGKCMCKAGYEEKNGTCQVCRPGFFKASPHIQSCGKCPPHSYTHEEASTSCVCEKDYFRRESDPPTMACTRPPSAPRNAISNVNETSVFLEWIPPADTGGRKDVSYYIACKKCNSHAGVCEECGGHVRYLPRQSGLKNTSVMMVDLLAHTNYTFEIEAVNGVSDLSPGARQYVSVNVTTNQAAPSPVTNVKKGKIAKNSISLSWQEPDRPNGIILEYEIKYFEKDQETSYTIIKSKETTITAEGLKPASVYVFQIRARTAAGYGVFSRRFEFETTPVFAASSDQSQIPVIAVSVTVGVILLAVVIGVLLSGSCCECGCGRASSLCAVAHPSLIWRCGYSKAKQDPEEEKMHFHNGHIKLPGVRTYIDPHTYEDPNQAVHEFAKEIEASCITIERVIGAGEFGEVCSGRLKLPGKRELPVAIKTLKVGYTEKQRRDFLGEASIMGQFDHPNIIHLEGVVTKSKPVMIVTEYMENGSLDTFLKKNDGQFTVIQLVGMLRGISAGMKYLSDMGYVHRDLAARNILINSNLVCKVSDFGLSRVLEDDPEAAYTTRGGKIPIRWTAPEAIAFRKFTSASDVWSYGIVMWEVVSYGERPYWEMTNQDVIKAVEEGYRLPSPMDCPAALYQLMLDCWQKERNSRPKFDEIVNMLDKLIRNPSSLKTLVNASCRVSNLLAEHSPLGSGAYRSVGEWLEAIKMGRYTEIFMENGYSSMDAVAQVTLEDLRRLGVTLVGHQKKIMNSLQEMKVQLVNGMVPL
BRK, sequence (Q13882 whole entry): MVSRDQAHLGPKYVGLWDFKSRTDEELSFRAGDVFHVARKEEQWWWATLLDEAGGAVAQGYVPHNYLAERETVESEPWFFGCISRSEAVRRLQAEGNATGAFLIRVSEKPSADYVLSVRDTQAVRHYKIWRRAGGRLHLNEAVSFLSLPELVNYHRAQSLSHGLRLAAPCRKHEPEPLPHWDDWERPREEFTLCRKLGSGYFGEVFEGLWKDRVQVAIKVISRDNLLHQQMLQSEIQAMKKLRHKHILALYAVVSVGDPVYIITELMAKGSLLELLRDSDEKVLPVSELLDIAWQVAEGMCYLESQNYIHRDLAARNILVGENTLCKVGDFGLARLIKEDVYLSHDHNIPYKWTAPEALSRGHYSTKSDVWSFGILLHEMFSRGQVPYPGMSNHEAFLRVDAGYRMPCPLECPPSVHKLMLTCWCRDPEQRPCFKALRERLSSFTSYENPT
FGR, sequence (P09769 whole entry): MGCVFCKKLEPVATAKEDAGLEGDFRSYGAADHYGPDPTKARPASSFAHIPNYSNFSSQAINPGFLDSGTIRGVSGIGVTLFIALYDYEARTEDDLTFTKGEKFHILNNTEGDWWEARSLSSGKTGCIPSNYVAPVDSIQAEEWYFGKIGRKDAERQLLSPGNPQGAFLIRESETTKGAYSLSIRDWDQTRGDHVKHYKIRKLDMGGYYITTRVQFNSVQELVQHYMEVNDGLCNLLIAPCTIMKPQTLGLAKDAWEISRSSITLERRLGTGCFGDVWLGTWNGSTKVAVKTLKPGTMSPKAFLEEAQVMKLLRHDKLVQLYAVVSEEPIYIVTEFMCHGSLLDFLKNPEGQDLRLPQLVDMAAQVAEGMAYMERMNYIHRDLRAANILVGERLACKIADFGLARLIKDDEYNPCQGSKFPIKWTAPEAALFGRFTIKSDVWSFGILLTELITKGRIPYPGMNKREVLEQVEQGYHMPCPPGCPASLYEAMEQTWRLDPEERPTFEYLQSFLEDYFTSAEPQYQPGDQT
EPHA3, sequence (P29320 21-983): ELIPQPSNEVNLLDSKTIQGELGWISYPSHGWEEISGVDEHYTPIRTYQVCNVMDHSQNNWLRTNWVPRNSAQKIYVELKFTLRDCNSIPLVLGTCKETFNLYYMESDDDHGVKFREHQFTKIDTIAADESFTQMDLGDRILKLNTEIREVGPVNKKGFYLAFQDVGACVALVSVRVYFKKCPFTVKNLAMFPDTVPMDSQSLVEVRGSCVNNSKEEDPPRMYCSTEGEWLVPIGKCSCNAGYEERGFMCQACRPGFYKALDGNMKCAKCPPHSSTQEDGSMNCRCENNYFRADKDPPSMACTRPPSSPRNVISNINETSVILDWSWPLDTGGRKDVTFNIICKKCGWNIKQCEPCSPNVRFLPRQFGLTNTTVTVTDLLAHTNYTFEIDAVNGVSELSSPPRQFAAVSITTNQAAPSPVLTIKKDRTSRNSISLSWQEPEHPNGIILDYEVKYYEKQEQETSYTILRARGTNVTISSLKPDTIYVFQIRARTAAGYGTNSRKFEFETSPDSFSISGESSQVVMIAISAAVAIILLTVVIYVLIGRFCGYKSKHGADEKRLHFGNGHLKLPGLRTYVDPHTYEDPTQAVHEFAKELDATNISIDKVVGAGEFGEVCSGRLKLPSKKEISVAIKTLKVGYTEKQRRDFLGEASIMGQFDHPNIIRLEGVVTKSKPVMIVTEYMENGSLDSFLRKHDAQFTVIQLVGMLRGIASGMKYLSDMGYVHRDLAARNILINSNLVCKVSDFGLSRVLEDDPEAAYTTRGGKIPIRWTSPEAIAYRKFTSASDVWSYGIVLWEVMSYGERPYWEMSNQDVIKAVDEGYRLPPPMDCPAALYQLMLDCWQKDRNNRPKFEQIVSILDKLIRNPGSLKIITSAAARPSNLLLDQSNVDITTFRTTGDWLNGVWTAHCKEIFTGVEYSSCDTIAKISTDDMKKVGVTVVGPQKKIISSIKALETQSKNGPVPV

inhibition at 1 µM (EPHA6): ≥ 70%
inhibition at 1 µM (EPHA5): ≥ 70%
inhibition at 1 µM (RIPK2): ≥ 70%
inhibition at 1 µM (EPHA3): ≥ 70%
inhibition at 1 µM (YES/YES1): ≥ 70%
inhibition at 1 µM (TXK): ≥ 70%
inhibition at 1 µM (EPHA2): ≥ 70%
inhibition at 1 µM (ABL1): ≥ 70%
inhibition at 1 µM (EPHB4): ≥ 70%
inhibition at 1 µM (FGFR2): ≥ 70%
inhibition at 1 µM (FGR): ≥ 70%
inhibition at 1 µM (TAOK3/JIK): ≥ 70%
inhibition at 1 µM (PDGFRb): ≥ 70%
inhibition at 1 µM (MYLK3): ≥ 70%
inhibition at 1 µM (LYN B): ≥ 70%
inhibition at 1 µM (BRK): ≥ 70%
inhibition at 1 µM (RIPK4): ≥ 70%
inhibition at 1 µM (TYK2): ≥ 70%
inhibition at 1 µM (NEK5): ≥ 70%
inhibition at 1 µM (FLT4/VEGFR3): ≥ 70%
inhibition at 1 µM (RET): ≥ 70%
inhibition at 1 µM (PEAK1): ≥ 70%
inhibition at 1 µM (FMS): ≥ 70%
inhibition at 1 µM (KDR/VEGFR2): ≥ 70%
SMILES: Cc1ccc(Nc2ncc3cc(-c4cc(NC(=O)c5cccc(C(F)(F)F)c5)ccc4C)ncc3n2)cn1 [Compound No. 4, N-(4-methyl-3-(2-((6-methylpyridin-3-yl)amino)pyrido[3,4-d]pyrimidin-6-yl)phenyl)-3-(trifluoromethyl)benzamide]
